Test [1] deals with GSPT1 (Homo sapiens, UniProt P15170+Q96SW2). Put plainly: HiBiT degradation assay, GSPT1, Procedure A. Format: cell-based. Also on record: HiBit-GSPT1 KI HEK293(LgBit) Cells; host or cells: HEK293(LgBit) knock-in cells. In a few lines: (§1)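 Luminescence from HiBiT lytic detection reports remaining tagged protein after cells sit six hours at 37° C with compound across ten concentrations (10 μM down to 0.005 μM, 0.1% DMSO). A 4-parameter curve fit gives DC50 and Ymin.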
For orientation: The HiBiT peptide binds its large partner to form an active luciferase.

The target in test [2] is T1, CK1α (Homo sapiens, UniProt P48729+Q96SW2).
T1 construct: CSNK1A1-HiBit KI HEK293(LgBit) Cells; host or cells: HEK293(LgBit) knock-in cells
T1 sequence (P48729 whole entry): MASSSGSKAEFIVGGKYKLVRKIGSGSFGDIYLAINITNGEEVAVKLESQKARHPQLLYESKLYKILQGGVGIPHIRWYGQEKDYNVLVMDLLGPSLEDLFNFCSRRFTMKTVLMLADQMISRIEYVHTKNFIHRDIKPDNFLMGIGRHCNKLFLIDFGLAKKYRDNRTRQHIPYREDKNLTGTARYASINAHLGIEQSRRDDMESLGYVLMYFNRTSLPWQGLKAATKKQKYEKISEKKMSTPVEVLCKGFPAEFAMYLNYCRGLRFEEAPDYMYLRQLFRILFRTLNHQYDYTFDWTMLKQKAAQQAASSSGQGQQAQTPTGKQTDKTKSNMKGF
T1 sequence (Q96SW2 whole entry): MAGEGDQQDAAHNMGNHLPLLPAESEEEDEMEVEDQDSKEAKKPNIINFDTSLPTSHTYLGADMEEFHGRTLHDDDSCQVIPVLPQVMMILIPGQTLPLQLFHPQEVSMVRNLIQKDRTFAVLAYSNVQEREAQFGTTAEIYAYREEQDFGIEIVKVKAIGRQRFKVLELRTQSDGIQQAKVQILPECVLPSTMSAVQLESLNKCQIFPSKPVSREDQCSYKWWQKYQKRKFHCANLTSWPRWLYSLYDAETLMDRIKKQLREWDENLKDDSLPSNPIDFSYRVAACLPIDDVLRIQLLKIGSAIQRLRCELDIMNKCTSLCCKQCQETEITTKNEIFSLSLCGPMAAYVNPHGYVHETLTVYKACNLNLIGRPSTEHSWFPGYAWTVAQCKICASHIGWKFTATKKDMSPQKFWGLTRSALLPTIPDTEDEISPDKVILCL
T1 sequence (Q16531 whole entry partner): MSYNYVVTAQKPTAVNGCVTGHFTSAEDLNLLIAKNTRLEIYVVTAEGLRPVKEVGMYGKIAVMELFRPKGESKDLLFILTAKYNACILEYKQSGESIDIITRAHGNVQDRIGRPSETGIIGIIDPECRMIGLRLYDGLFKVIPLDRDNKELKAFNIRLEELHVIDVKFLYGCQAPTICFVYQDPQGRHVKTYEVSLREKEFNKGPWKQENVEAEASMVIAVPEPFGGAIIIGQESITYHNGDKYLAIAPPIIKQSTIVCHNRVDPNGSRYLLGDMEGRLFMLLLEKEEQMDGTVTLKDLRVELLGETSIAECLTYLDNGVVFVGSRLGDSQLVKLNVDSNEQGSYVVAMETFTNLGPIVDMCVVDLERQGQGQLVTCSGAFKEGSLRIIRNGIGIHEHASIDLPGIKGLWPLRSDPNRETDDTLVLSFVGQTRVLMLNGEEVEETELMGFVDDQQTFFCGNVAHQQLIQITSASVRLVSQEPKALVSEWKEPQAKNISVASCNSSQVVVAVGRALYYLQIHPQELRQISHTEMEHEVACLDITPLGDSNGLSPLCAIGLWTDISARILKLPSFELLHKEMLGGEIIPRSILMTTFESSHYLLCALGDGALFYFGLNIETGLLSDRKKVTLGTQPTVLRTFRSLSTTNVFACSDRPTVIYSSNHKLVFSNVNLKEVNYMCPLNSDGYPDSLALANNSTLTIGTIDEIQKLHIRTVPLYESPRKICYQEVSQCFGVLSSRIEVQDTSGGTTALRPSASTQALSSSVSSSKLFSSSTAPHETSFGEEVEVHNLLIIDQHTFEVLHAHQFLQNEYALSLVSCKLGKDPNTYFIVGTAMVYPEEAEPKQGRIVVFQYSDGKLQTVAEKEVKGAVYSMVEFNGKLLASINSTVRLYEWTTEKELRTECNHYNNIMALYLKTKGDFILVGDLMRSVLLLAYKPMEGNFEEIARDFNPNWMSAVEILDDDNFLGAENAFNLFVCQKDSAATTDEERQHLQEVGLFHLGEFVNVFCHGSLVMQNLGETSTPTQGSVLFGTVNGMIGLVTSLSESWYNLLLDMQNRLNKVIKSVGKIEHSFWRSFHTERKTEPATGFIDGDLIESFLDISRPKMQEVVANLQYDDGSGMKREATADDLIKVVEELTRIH
Put plainly: HiBiT degradation assay, CK1α, Procedure A. Format: cell-based. In a few lines:
as §1

One may read the DC50 as the concentration giving 50% degradation. Lower therefore signals a more potent degrader.

SMILES strings stand for the structures. Where only a bound is given, the exact number is not on record here.

GSPT1, sequence (P15170 whole entry): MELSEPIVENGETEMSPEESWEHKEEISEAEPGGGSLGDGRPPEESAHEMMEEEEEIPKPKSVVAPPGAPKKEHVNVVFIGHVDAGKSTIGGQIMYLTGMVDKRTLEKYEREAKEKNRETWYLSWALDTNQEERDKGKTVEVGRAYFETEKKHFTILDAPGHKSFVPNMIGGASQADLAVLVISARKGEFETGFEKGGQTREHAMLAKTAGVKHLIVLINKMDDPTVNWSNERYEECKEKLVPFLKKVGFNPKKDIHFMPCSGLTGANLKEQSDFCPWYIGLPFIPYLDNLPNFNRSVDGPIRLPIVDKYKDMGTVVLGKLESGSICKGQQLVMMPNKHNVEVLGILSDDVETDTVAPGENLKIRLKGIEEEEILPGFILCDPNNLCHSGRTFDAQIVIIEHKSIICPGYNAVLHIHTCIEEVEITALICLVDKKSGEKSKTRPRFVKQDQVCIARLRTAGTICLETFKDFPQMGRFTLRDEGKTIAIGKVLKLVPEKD
GSPT1, sequence (Q96SW2 whole entry): as the sequence (Q96SW2 whole entry) above
GSPT1, sequence (Q16531 whole entry partner): as the sequence (Q16531 whole entry partner) above

As for `O=C1CCC(N2Cc3cc(-c4c[nH]c(-c5ccccc5)n4)ccc3C2=O)C(=O)N1` (centres unmarked) [Example 54, 3-(1-Oxo-5-(2-phenyl-1H-imidazol-4-yl)isoindolin-2-yl)piperidine-2,6-dione], in test [1] (six hours incubation), the DC50 is no less than 25 nM and the “GSPT1 Ymin” value is listed as “F (F = >75-100% remaining)”. For the same compound, in test [2] (six hours incubation), the “CK1α Ymin” value is reported as “C (C = 0-10% remaining)” and the DC50 is less than 25 nM.
On to `CNC(=O)c1cccc(-c2c(-c3ccc4c(c3)CN(C3CCC(=O)NC3=O)C4=O)ncn2C)c1` (centres unmarked) [Example 268], for which, in test [1] (six hours incubation), the DC50 was no less than 25 nM and the “GSPT1 Ymin” value is on record as “F (F = >75-100% remaining)”. Besides, in test [2] (six hours incubation), the “CK1α Ymin” value was “D (D = >10- 25% remaining)” and the DC50 is no less than 25 nM.
For `Cn1ncc(-c2ccc3c(c2)CN(C2CCC(=O)NC2=O)C3=O)c1-c1ccc(O)cc1` (centres unmarked) [Example 142], in test [1] (six hours incubation), the DC50 was no less than 25 nM and the “GSPT1 Ymin” value was “F (F = >75-100% remaining)”. Further, in test [2] (six hours incubation), the “CK1α Ymin” value was “D (D = >10- 25% remaining)” and the DC50 was less than 25 nM.
As to `Cn1ncc(-c2ccc3c(c2)CN(C2CCC(=O)NC2=O)C3=O)c1-c1ccc(N2CCCCC2)nc1` (centres unmarked) [Example 465], in test [1] (six hours), the DC50 is no less than 25 nM and the “GSPT1 Ymin” value was “F (F = >75-100% remaining)”. Further, in test [2] (six hours), the “CK1α Ymin” value is given as “E (E = >25-75% remaining)” and the DC50 was no less than 25 nM.
With `Cc1cc(-c2c(-c3ccc4c(c3)CN(C3CCC(=O)NC3=O)C4=O)cnn2C)n(C)n1` (centres unmarked) [Example 454], in test [1] (six hours), the DC50 is no less than 25 nM and the “GSPT1 Ymin” value was “F (F = >75-100% remaining)”. Further, in test [2] (six hours), the “CK1α Ymin” value is given as “F (F = >75-100% remaining)” and the DC50 is no less than 25 nM.
On to `Cc1ccc(-c2c(-c3ccc4c(c3)CN(C3CCC(=O)NC3=O)C4=O)ncn2C)c(C)c1` (centres unmarked) [Example 166], for which, in test [1] (six hours incubation), the DC50 is no less than 25 nM and the “GSPT1 Ymin” value is “E (E = >25-75% remaining)”. Further, in test [2] (six hours incubation), the “CK1α Ymin” value is listed as “E (E = >25-75% remaining)” and the DC50 was less than 25 nM.
As to `Cn1ncc(-c2ccc3c(c2)CN(C2CCC(=O)NC2=O)C3=O)c1-c1ccc(-c2ccccc2)cc1` (centres unmarked) [Example 144], in test [1] (six hours incubation), the DC50 is no less than 25 nM and the “GSPT1 Ymin” value is “F (F = >75-100% remaining)”. In test [2] (six hours incubation), the “CK1α Ymin” value is “E (E = >25-75% remaining)” and the DC50 is less than 25 nM.
Consider `Cn1cnc(-c2ccn3c(=O)n(C4CCC(=O)NC4=O)nc3c2)c1-c1ccccc1` (centres unmarked) [Example 20, 3-(7-(1-Methyl-5-phenyl-1H-imidazol-4-yl)-3-oxo-[1,2,4]triazolo[4,3-a]pyridin-2 (3H)-yl)piperidine-2,6-dione], for which, in test [1] (six hours incubation), the DC50 is no less than 25 nM and the “GSPT1 Ymin” value was “E (E = >25-75% remaining)”. In addition, in test [2] (six hours incubation), the “CK1α Ymin” value was “E (E = >25-75% remaining)” and the DC50 was no less than 25 nM.
Turning to `Cn1cnc(-c2ccc3c(c2)CN(C2CCC(=O)NC2=O)C3=O)c1-c1ccc(Oc2cccnc2)cc1` (centres unmarked) [Example 308], in test [1] (six hours incubation), the DC50 is no less than 25 nM and the “GSPT1 Ymin” value was “F (F = >75-100% remaining)”. In test [2] (six hours incubation), the “CK1α Ymin” value is given as “D (D = >10- 25% remaining)” and the DC50 was less than 25 nM.
`Cn1ncc(-c2ccc3c(c2)CN(C2CCC(=O)NC2=O)C3=O)c1-c1ccn(C)c(=O)c1` (centres unmarked) [Example 457]: in test [1] (six hours), the DC50 is no less than 25 nM and the “GSPT1 Ymin” value is recorded as “F (F = >75-100% remaining)”. In test [2] (six hours), the “CK1α Ymin” value was “E (E = >25-75% remaining)” and the DC50 is no less than 25 nM.
Turning to `Cc1c(F)cccc1-c1c(-c2ccc3c(c2)CN(C2CCC(=O)NC2=O)C3=O)cnn1C` (centres unmarked) [Example 125], in test [1] (six hours incubation), the DC50 was no less than 25 nM and the “GSPT1 Ymin” value is given as “F (F = >75-100% remaining)”. In test [2] (six hours incubation), the “CK1α Ymin” value is “E (E = >25-75% remaining)” and the DC50 is less than 25 nM.
In the case of `Cc1ccccc1-c1c(-c2ccc3c(c2)CN(C2CCC(=O)NC2=O)C3=O)ncn1C` (centres unmarked) [Example 161], in test [1] (six hours incubation), the DC50 was no less than 25 nM and the “GSPT1 Ymin” value is listed as “F (F = >75-100% remaining)”. In test [2] (six hours incubation), the “CK1α Ymin” value is “D (D = >10- 25% remaining)” and the DC50 is less than 25 nM.
`Cc1c(N)cccc1-c1nc(-c2ccc3c(c2)CN(C2CCC(=O)NC2=O)C3=O)cn1C` (centres unmarked) [Example 573]: in test [1] (six hours), the DC50 was less than 25 nM and the “GSPT1 Ymin” value was “E (E = >25-75% remaining)”. Further, in test [2] (six hours), the “CK1α Ymin” value was “C (C = 0-10% remaining)” and the DC50 is less than 25 nM.
Turning to `COc1cc(-c2c(-c3ccc4c(c3)CN(C3CCC(=O)NC3=O)C4=O)ncn2C)ccc1C` (centres unmarked) [Example 251], in test [1] (six hours incubation), the 50% degradation concentration (DC50) was no less than 25 nM and the “GSPT1 Ymin” value is listed as “F (F = >75-100% remaining)”. Besides, in test [2] (six hours incubation), the “CK1α Ymin” value was “D (D = >10- 25% remaining)” and the DC50 was less than 25 nM.
Take `Cn1cnc(-c2ccc3c(c2)CN(C2CCC(=O)NC2=O)C3=O)c1-c1ccncc1` (centres unmarked) [Example 317]: in test [1] (six hours incubation), the DC50 was no less than 25 nM and the “GSPT1 Ymin” value is on record as “F (F = >75-100% remaining)”. In addition, in test [2] (six hours incubation), the “CK1α Ymin” value is on record as “D (D = >10- 25% remaining)” and the 50% degradation concentration (DC50) was less than 25 nM.
`COCc1ccc(-c2c(-c3ccc4c(c3)CN(C3CCC(=O)NC3=O)C4=O)ncn2C)cc1` (centres unmarked) [Example 250]: in test [1] (six hours incubation), the DC50 is less than 25 nM and the “GSPT1 Ymin” value is reported as “E (E = >25-75% remaining)”. Also, in test [2] (six hours incubation), the “CK1α Ymin” value is recorded as “C (C = 0-10% remaining)” and the DC50 is less than 25 nM.
With `Cn1ncc(-c2ccc3c(c2)CN(C2CCC(=O)NC2=O)C3=O)c1-c1ccc2c(c1)CCO2` (centres unmarked) [Example 97], in test [1] (six hours incubation), the DC50 was no less than 25 nM and the “GSPT1 Ymin” value is on record as “F (F = >75-100% remaining)”. Besides, in test [2] (six hours incubation), the “CK1α Ymin” value is “D (D = >10- 25% remaining)” and the DC50 was less than 25 nM.
Consider `Cn1ncc(-c2ccc3c(c2)CN(C2CCC(=O)NC2=O)C3=O)c1-c1cccc(N)c1` (centres unmarked) [Example 147], for which, in test [1] (six hours incubation), the DC50 is no less than 25 nM and the “GSPT1 Ymin” value was “F (F = >75-100% remaining)”. In test [2] (six hours incubation), the “CK1α Ymin” value was “C (C = 0-10% remaining)” and the DC50 was less than 25 nM.
The matching figures for `Cn1ncc(-c2ccc3c(c2)CN(C2CCC(=O)NC2=O)C3=O)c1-c1ccc(F)cc1Cl` (centres unmarked) [Example 88]: no less than 25 nM, “F (F = >75-100% remaining)”, “E (E = >25-75% remaining)” and less than 25 nM.
Consider `Cn1cnc(-c2ccc3c(c2)CN(C2CCC(=O)NC2=O)C3=O)c1-c1cncnc1` (centres unmarked) [Example 520], for which, in test [1] (six hours), the DC50 was no less than 25 nM and the “GSPT1 Ymin” value is “F (F = >75-100% remaining)”. Moreover, in test [2] (six hours), the “CK1α Ymin” value is on record as “E (E = >25-75% remaining)” and the DC50 was no less than 25 nM.
As for `Cc1ccc(-c2nc(-c3ccc4c(c3)CN(C3CCC(=O)NC3=O)C4=O)cn2C)cc1Cl` (centres unmarked) [Example 564], in test [1] (six hours), the DC50 was less than 25 nM and the “GSPT1 Ymin” value was “F (F = >75-100% remaining)”. Moreover, in test [2] (six hours), the “CK1α Ymin” value is recorded as “C (C = 0-10% remaining)” and the half-maximal degradation concentration (DC50) is less than 25 nM.
For `Cn1ncc(-c2ccc3c(c2)CN(C2CCC(=O)NC2=O)C3=O)c1-c1ccc(C2(C#N)CC2)cc1` (centres unmarked) [Example 110], in test [1] (six hours incubation), the DC50 was no less than 25 nM and the “GSPT1 Ymin” value is reported as “F (F = >75-100% remaining)”. For the same compound, in test [2] (six hours incubation), the “CK1α Ymin” value is recorded as “E (E = >25-75% remaining)” and the DC50 was less than 25 nM.
For `CNC(=O)c1cccc(-c2c(-c3ccc4c(c3)CN(C3CCC(=O)NC3=O)C4=O)cnn2C)c1` (centres unmarked) [Example 122], in that order: no less than 25 nM, “F (F = >75-100% remaining)”, “E (E = >25-75% remaining)” and no less than 25 nM.

The values above are taken from patent US20240158370A1, “CK1 alpha AND DUAL CK1 alpha / GSPT1 DEGRADING COMPOUNDS” (Innovo Therapeutics, Inc., priority 2022, published 2024).
